{
  "source": "patent US11617741B1",
  "about": "“Method for inhibiting growth of bacteria” (priority 2021, dated 2023)",
  "key": {"[1]": {"target": "Bacillus subtilis tyrS T-box", "assay": "Binding to chemically synthesized truncated stem I construct", "conditions": "truncated stem I construct of tyrS T-box"}, "[2]": {"tested_on": "A549 human lung epithelial cells", "assay": "alamarBlue cell redox activity", "format": "cell-based", "conditions": "128 μg/ml, 48 hours", "procedure": "(§1) alamarBlue was purchased (Thermo Scientific) and used according to the manufacturer's directions. In short, 50,000 cells of either A549 or J774.16 were added into a 96-well plate in 200 μl and left to adhere overnight. As a control, we used a 96-well plate with the desired drugs at 2× the final concentrations in 160 μl without adding cells. The cells' medium was removed, and 100 μl fresh medium was added, followed by 100 μl of 2× drug from the corresponding wells in the drug plate. Media were added to the drug plate to reduce the concentrations to 1×, and the cells were incubated at 37° C. for 48 or 72 hours. alamarBlue was added at 10 μl per 100 μl, and the fluorescence of both plates at 590 nm was read after overnight incubation. The drug plate fluorescence was subtracted from the cells' plate respective values, and the data were normalized to untreated cells' reading. All plates included a vehicle control used as the 0-μg/ml value for each drug tested. All concentrations were tested in triplicate and included at least three biological replicates. A media control, untreated control, a killing control, and a vehicle control were always included. The cytotoxicity of synergistic or additive MICs of PKZ18 analogs and a common antibiotic (co-MIC) on eukaryotic cells was tested on A549 cells as above, but the two plates were set up identically to the checkerboard assay so that the final concentrations tested corresponded to those tested against MRSA."}, "[3]": {"tested_on": "J774.16 murine macrophages", "assay": "alamarBlue cell redox activity", "format": "cell-based", "conditions": "for cellular redox activity: 64 μg/ml", "procedure": "as §1"}, "B. subtilis 168 [4]": {"tested_on": "B. subtilis 168", "assay": "Minimum inhibitory concentration determination", "format": "cell-based, Bacillus subtilis", "procedure": "(§2) The 96-well plate was organized as follows. Media (100 μl) were added to all wells."}, "S. aureus 4220": {"tested_on": "S. aureus 4220", "procedure": "MICs were determined essentially as previously described (Frohlich KM, Weintraub SF, Bell JT, Todd GC, Väre VYP, Schneider R, Kloos ZA, Tabe ES, Cantara WA, Stark CJ, Onwuanaibe UJ, Duffy BC, Basanta-Sanchez M, Kitchen DB, McDonough KA, Agris PF. 2019. Discovery of small-molecule antibiotics against a unique tRNA-mediated regulation of transcription in Gram-positive bacteria. ChemMedChem 14:758-769.). In short, cultures were grown overnight in the appropriate media, diluted to A620 of 0.1, grown for 3 hours, and again diluted to A620 of 0.1. Cultures were then diluted 10-fold, of which 5 μl were added to each well of the 96-well plate used for the experiment except the media control wells. The initial well inoculum was 7.5×10^5 bacteria for S. aureus and 2.5×10^5 bacteria for B. subtilis (bacterial numbers were measured by OD). The 96-well plate was organized as follows. Media (100 μl) were added to all wells. Stock solutions (100 μi) containing 2 times the highest concentration of antibiotics to be tested were loaded to column 1, with two technical repeats per drug. […] The following controls were included: vehicle control (DMSO, chloroform, ethanol, etc.), cells in plain media, and media control (no cells). The initial optical density (A620) of the 96-well plate was determined, the plate was grown for 16 to 24 hours, and at that time, the final optical densities (A620) were read. The initial reading was subtracted from the final reading, and the technical replicates were averaged. MICs of PKZ18 and analogs were compared to clinically used antibiotics such as gentamicin."}, "S. aureus N315 (MRSA)": {"tested_on": "S. aureus N315 (MRSA)", "assay": "Antibiotic resistance frequency (fluctuation assay)", "format": "cell-based, Staphylococcus aureus", "conditions": "MRSA", "description": "Gentamicin on BHI agar was used as a control."}, "[5]": {"tested_on": "J774.16 murine macrophages", "assay": "Trypan blue cell viability counting", "format": "cell-based", "conditions": "48 hours", "procedure": "J774.16 cells were grown in J7 medium from a fresh passage in a 1:4 dilution of 70 to 80% confluent cells. The cells were allowed to adhere in 6-well plates overnight. The medium was replaced, and drugs were added to desired concentrations in a total volume of 5 ml/well. A media control, untreated control, a killing control of Triton X-100, and a vehicle control were always included. After 48 hours treatment, medium was removed, and fresh media and Trypan blue were added 1:1 in a final volume of 400 μl. Cells, 100 to 200, from two areas of each well were counted and the data averaged and normalized against untreated cells. The vehicle control served as the 0.0-μg/ml value. At least three biological replicates were included for each drug at each concentration."}, "glyQS T-box": {"tested_on": "glyQS T-box", "assay": "qRT-PCR transcriptional read-through of T-box-regulated glyQS (confirmation of inhibition of T-box mechanism)", "format": "cell-based, Bacillus subtilis 1A5", "conditions": "confirmation of inhibition of T-box mechanism from qRT-PCR assay", "description": "Sample preparation of RNA and cDNA."}, "B. subtilis 168 [6]": {"tested_on": "B. subtilis 168", "procedure": "Gentamicin on BHI agar was used as a control. In short, MRSA and B. subtilis were grown overnight in BHI, and 3-hour day cultures at the optical density of A620 of 0.1 were started for both organisms. The optical density after 3 hours of growth was measured; cultures were then pelleted and resuspended to give 10^11 CFU/ml by optical density. CFU of 10^11 per OD were plated in total; 100 μl of the cells were then plated on BHI agar containing either 128 μg/m1PKZ18 or 64 μg/m1PKZ18-22. Serial dilutions of the cells were plated on plain BHI agar in order to calculate the CFU/ml, which was calculated as the number of colonies found on the plates divided by the total number of bacteria plated. CFU means colony forming units, a measure of live bacteria."}, "E. coli": {"tested_on": "E. coli", "assay": "Minimum inhibitory and bactericidal concentration determination, Gram-negative control", "format": "cell-based, Escherichia coli", "procedure": "as §2"}, "[7]": {"tested_on": "S. aureus N315 (MRSA isolate)", "assay": "Minimum inhibitory and bactericidal concentration determination", "format": "cell-based, Staphylococcus aureus", "procedure": "as §2"}, "[8]": {"target": "Bacillus subtilis glyQS T-box", "assay": "Binding to chemically synthesized truncated stem I construct", "conditions": "truncated stem I construct of glyQS T-box"}, "[9]": {"tested_on": "B. subtilis glyQS Stem I specifier loop", "assay": "UV-monitored thermodynamic stability measurements of stem I constructs", "format": "binding, Bacillus subtilis", "procedure": "Thermodynamic parameters were derived from four UV-monitored destabilizations and four renaturations of chemically synthesized wild-type and mutant truncated B. subtilis glyQS Stem I specifier loops in the absence and presence of PKZ18 (10 mM Na2HPO4 and 10 mM KH2PO4; final pH 6.8). The absorbance was collected at 260 nm and was performed using a Varian Cary 3 UV-visible spectrophotometer equipped with a Peltier temperature control accessory. The temperature was increased at a rate of 1° C. per minute from 5 to 85° C. Absorbance data at 260 nm were collected as a function of temperature at a rate of four data points per minute. All experiments were performed simultaneously with a control cell containing buffer only. The error calculated is the error of the mean."}, "[10]": {"tested_on": "S. aureus (ATCC 29213) biofilm", "assay": "MBEC-HTP biofilm model, single agents, CFU recovery", "conditions": "range of concentrations up to 1.024 mg/mL", "quoted_text": "An overnight culture of S. aureus (ATCC 29213) was diluted to 1×10^7 cells/mL in tryptic soy broth (TSB) supplemented with 10% human plasma (Innovative Research, Novi, Mich. USA) and added to the wells of an MBEC™-HTP Assay Biofilm Innoculator (Innovotech, Edmonton, AB, Canada). The plate was incubated overnight at 37° C. and shaken at 125 rpm. […] Control wells were without a COMPOUND OF Formula I. The treatment plate was incubated for 24 h at 37° C. after which the lid was removed, rinsed with PBS, and placed in a new 96-well plate containing TSB. The biofilm was removed from the assay lid into the recovery plate wells by sonication, a new plate cover was added, and the viability of the biofilm was determined after 24 h of incubation at 37° C. by reading the OD at 625 nm. Three independent experiments were conducted. Concentrations of interest were followed up with colony forming unit (CFU) recovery and scanning electron microscopy analysis. After conclusion of the MBEC assay, the minimum bactericidal concentration (MBC) was determined. […]\nAfter rinsing in PBS, designated pegs were snapped off the lid using sterile tweezers and placed in 1.5 mL Eppendorf tubes containing 200 μL PBS. […] The plates were then imaged and colonies counted on a ColonyDoc-It™ Imaging station (UVP, Analytik Jena, Beverly, Mass., USA)."}, "[11]": {"tested_on": "planktonic growth of Staphylococcus", "quoted_text": "An overnight culture of S. aureus (ATCC 29213) was diluted to 1×10^7 cells/mL in tryptic soy broth (TSB) supplemented with 10% human plasma (Innovative Research, Novi, Mich. USA) and added to the wells of an MBEC™-HTP Assay Biofilm Innoculator (Innovotech, Edmonton, AB, Canada). The plate was incubated overnight at 37° C. and shaken at 125 rpm. […] Control wells were without a COMPOUND OF Formula I. The treatment plate was incubated for 24 h at 37° C. after which the lid was removed, rinsed with PBS, and placed in a new 96-well plate containing TSB. The biofilm was removed from the assay lid into the recovery plate wells by sonication, a new plate cover was added, and the viability of the biofilm was determined after 24 h of incubation at 37° C. by reading the OD at 625 nm. Three independent experiments were conducted. Concentrations of interest were followed up with colony forming unit (CFU) recovery and scanning electron microscopy analysis. After conclusion of the MBEC assay, the minimum bactericidal concentration (MBC) was determined. The MBC is the lowest concentration of an antibacterial agent required to kill a particular bacterium. The peg lid from the MBEC assay was removed from the challenge plate and 20 μL of medium from each well of the challenge plate was removed and added to a new sterile 96-well plate filled with 180 μL TSB. […]"}, "[12]": {"tested_on": "PKZRSA1 (PKZ18-22-resistant MRSA)", "assay": "MICs against PKZ18-22-resistant mutant compared to WT MRSA", "format": "cell-based, Staphylococcus aureus", "procedure": "as §2"}, "[13]": {"conditions": "similarly sized construct with gly codon but lacking the specifier loop"}, "[14]": {"conditions": "wild-type truncated glyQS stem I with the specifier loop"}},
  "note": "Marks after values point to notes of the source that are not given here.",
  "data": [
    {"smiles": "Cc1sc(NC(=O)C2C3CCC(C3)C2C(=O)O)nc1-c1ccc(C(C)C)cc1", "note": "(centres unmarked) [PKZ18-00]", "values": [
      {"measurement": "dissociation constant", "setting": "[1]", "value": "low micromolar"},
      {"measurement": "redox activity", "setting": "[2]", "value": "near-total reduction"},
      {"measurement": "cellular redox activity", "setting": "[3]; 48 hours", "value": "increased"},
      {"measurement": "cellular redox activity", "setting": "[3]; 72 hours", "value": "decreased"},
      {"measurement": "redox activity", "setting": "[3]; 128 μg/ml, 48 hours", "value": "near-total reduction"},
      {"measurement": "fold lower MIC in minimal versus rich media", "setting": "B. subtilis 168 [4]; B. subtilis 168", "value": 8, "unit": "fold"},
      {"measurement": "MIC against B. subtilis 168 in minimal media", "setting": "B. subtilis 168 [4]; minimal media", "value": 8, "unit": "µg/mL"},
      {"measurement": "MIC against B. subtilis 168 in rich media", "setting": "B. subtilis 168 [4]; rich media", "value": 64, "unit": "µg/mL"},
      {"measurement": "fold lower MIC in minimal versus rich media", "setting": "S. aureus 4220; S. aureus 4220", "value": 4, "unit": "fold"},
      {"measurement": "MIC against S. aureus in minimal media", "setting": "S. aureus 4220; S. aureus 4220, minimal media", "value": "16^a μg/ml"},
      {"measurement": "MIC against S. aureus in rich media", "setting": "S. aureus 4220; S. aureus 4220, rich media", "value": "64^a μg/ml"},
      {"measurement": "resistant colonies", "setting": "S. aureus N315 (MRSA)", "value": "No PKZ18-resistant colonies were found"},
      {"measurement": "cell viability", "setting": "[5]; 64 μg/ml", "value": 76, "unit": "%"},
      {"measurement": "macrophage viability", "setting": "[5]; 128 μg/ml", "value": 25, "unit": "%"},
      {"measurement": "T-Box targeting", "setting": "glyQS T-box; Table 1", "value": "Yes"},
      {"measurement": "T-Box targeting", "setting": "glyQS T-box; Table 2", "value": "Yes"},
      {"measurement": "resistant colonies", "setting": "B. subtilis 168 [6]", "value": "did not generate resistant colonies"},
      {"measurement": "MIC E. coli", "setting": "E. coli", "value": "> 256", "unit": "µg/mL"},
      {"measurement": "MBC E. coli", "setting": "E. coli; value in parentheses", "value": "> 256", "unit": "µg/mL"},
      {"measurement": "MIC S. aureus N315", "setting": "[7]; Table 2", "value": 64, "unit": "µg/mL"},
      {"measurement": "MBC S. aureus N315", "setting": "[7]; Table 2, value in parentheses", "value": "> 256", "unit": "µg/mL"},
      {"measurement": "dissociation constant", "setting": "[8]", "value": "low micromolar"},
      {"measurement": "change in melting temperature ΔTm", "setting": "[9]; [13]", "value": "−0.33"},
      {"measurement": "free energy ΔΔG", "setting": "[9]; [13]", "value": "+0.22"},
      {"measurement": "change in melting temperature ΔTm", "setting": "[9]; [14]", "value": "−18.52", "unit": "°C"},
      {"measurement": "free energy ΔΔG", "setting": "[9]; [14]", "value": "+3.41 kcal mol^−1"}
    ]},
    {"smiles": "CN[C@H](CC(C)C)C(=O)N[C@H]1C(=O)N[C@@H](CC(N)=O)C(=O)N[C@H]2C(=O)N[C@H]3C(=O)N[C@H](C(=O)N[C@H](C(=O)O)c4cc(O)cc(O)c4-c4cc3ccc4O)[C@H](O)c3ccc(c(Cl)c3)Oc3cc2cc(c3O[C@@H]2O[C@H](CO)[C@@H](O)[C@H](O)[C@H]2O[C@H]2C[C@](C)(N)[C@H](O)[C@H](C)O2)Oc2ccc(cc2Cl)[C@H]1O", "note": "[vancomycin]", "values": [
      {"measurement": "MBEC efficacy at highest concentration", "setting": "[10]", "value": "not effective"},
      {"measurement": "planktonic growth over a range of concentrations", "setting": "[11]", "value": "no growth"},
      {"measurement": "fold increase in MIC against PKZRSA1 compared to WT", "setting": "[12]", "value": 2, "unit": "fold"}
    ]}
  ]
}
